Experimental data as given in US20040259775A1, “Conformationally constrained peptides that bind the ORL-1 receptor” (EURO-CELTIQUE S.A., priority 2002, published 2004).

Tests used:
human ORL-1 receptor = target: T1, human ORL-1 receptor (Homo sapiens, UniProt P41146); experiment: [35S]GTPγS functional assay with ORL-1 receptor membranes; type: biochemical; conditions: for Emax: [35S]GTPγS functional assay, NC = 100
T1 construct: host or cells: recombinant HEK-293 cells
Protocol: Filter plates were subsequently dried at 50° C. for 2-3 hours. […] 3.0.

[1] = target: human opioid receptor-like (ORL-1) receptor (Homo sapiens, UniProt P41146); type: binding
Chain of human opioid receptor-like (ORL-1) receptor (P41146 whole entry): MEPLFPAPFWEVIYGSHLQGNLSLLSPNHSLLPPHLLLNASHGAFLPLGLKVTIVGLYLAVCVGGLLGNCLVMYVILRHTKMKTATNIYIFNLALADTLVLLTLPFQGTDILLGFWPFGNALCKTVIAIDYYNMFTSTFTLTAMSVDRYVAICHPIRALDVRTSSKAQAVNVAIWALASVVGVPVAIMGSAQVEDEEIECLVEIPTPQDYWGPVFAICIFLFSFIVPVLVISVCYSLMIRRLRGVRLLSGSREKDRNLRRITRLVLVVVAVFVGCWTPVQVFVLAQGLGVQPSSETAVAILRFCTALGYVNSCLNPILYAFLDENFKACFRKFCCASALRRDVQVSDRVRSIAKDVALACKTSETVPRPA

T1 sequence (P41146 whole entry): as above

CC(C)C[C@H](NC(=O)[C@H](CCCCN)NC(=O)[C@H](CCCNC(=N)N)NC(=O)[C@H](C)NC(=O)[C@H](CO)NC(=O)[C@H](CCCCN)NC(=O)[C@H](CCCNC(=N)N)NC(=O)C(C)(C)NC(=O)CNC(=O)[C@@H](NC(=O)[C@H](Cc1ccccc1)NC(=O)CNC(=O)CNC(=O)[C@@H](N)Cc1ccccc1)[C@@H](C)O)C(=O)N[C@@H](C)C(=O)N[C@@H](CC(N)=O)C(=O)N[C@@H](CCC(N)=O)C(N)=O [IA] gave an Emax (human ORL-1 receptor) of 82%.

With CC(C)C[C@H](NC(=O)[C@H](CCCCN)NC(=O)[C@H](CCCNC(=N)N)NC(=O)C(C)(C)NC(=O)[C@H](CO)NC(=O)[C@H](CCCCN)NC(=O)[C@H](CCCNC(=N)N)NC(=O)[C@H](C)NC(=O)CNC(=O)[C@@H](NC(=O)[C@H](Cc1ccccc1)NC(=O)CNC(=O)CNC(=O)[C@@H](N)Cc1ccccc1)[C@@H](C)O)C(=O)N[C@@H](C)C(=O)N[C@@H](CC(N)=O)C(=O)N[C@@H](CCC(N)=O)C(N)=O [IIA] the Emax (human ORL-1 receptor) was 82%.

CC(C)C[C@H](NC(=O)[C@H](CCCCN)NC(=O)[C@H](CCCNC(=N)N)NC(=O)[C@H](C)NC(=O)[C@H](CO)NC(=O)[C@H](CCCCN)NC(=O)[C@H](CCCNC(=N)N)NC(=O)[C@H](C)NC(=O)CNC(=O)[C@@H](NC(=O)[C@H](Cc1ccccc1)NC(=O)CNC(=O)CNC(=O)[C@@H](N)Cc1ccccc1)[C@@H](C)O)C(=O)NC(C)(C)C(=O)N[C@@H](CC(N)=O)C(=O)N[C@@H](CCC(N)=O)C(N)=O [IIIA] was tested, and the Emax (human ORL-1 receptor) was 97%.

For CC(C)C[C@H](NC(=O)[C@H](CCCCN)NC(=O)[C@H](CCCNC(=N)N)NC(=O)[C@H](C)NC(=O)[C@H](CO)NC(=O)[C@H](CCCCN)NC(=O)[C@H](CCCNC(=N)N)NC(=O)[C@H](C)NC(=O)CNC(=O)[C@@H](NC(=O)[C@H](Cc1ccccc1)NC(=O)CNC(=O)CNC(=O)[C@@H](N)Cc1ccccc1)[C@@H](C)O)C(=O)NC(C)(C)C(=O)N[C@@H](CC(N)=O)C(=O)N[C@@H](CCC(N)=O)C(=O)O [III], the Emax (human ORL-1 receptor) was 91%.

Work on CC(C)C[C@H](NC(=O)[C@H](CCCCN)NC(=O)[C@H](CCCNC(=N)N)NC(=O)C(C)(C)NC(=O)[C@H](CO)NC(=O)[C@H](CCCCN)NC(=O)[C@H](CCCNC(=N)N)NC(=O)[C@H](C)NC(=O)CNC(=O)[C@@H](NC(=O)[C@H](Cc1ccccc1)NC(=O)CNC(=O)CNC(=O)[C@@H](N)Cc1ccccc1)[C@@H](C)O)C(=O)N[C@@H](C)C(=O)N[C@@H](CC(N)=O)C(=O)N[C@@H](CCC(N)=O)C(=O)O [II] yielded an Emax (human ORL-1 receptor) of 96%.

CC(C)C[C@H](NC(=O)[C@H](CCCCN)NC(=O)[C@H](CCCNC(=N)N)NC(=O)[C@H](C)NC(=O)[C@H](CO)NC(=O)[C@H](CCCCN)NC(=O)[C@H](CCCNC(=N)N)NC(=O)C(C)(C)NC(=O)CNC(=O)[C@@H](NC(=O)[C@H](Cc1ccccc1)NC(=O)CNC(=O)CNC(=O)[C@@H](N)Cc1ccccc1)[C@@H](C)O)C(=O)N[C@@H](C)C(=O)N[C@@H](CC(N)=O)C(=O)N[C@@H](CCC(N)=O)C(=O)O [I] showed an Emax (human ORL-1 receptor) of 97%.

In the case of CC(C)C[C@H](NC(=O)[C@H](CCCCN)NC(=O)[C@H](CCCNC(=N)N)NC(=O)C(C)(C)NC(=O)[C@H](CO)NC(=O)[C@H](CCCCN)NC(=O)[C@H](CCCNC(=N)N)NC(=O)C(C)(C)NC(=O)CNC(=O)[C@@H](NC(=O)[C@H](Cc1ccccc1)NC(=O)CNC(=O)CNC(=O)[C@@H](N)Cc1ccccc1)[C@@H](C)O)C(=O)N[C@@H](C)C(=O)N[C@@H](CC(N)=O)C(=O)N[C@@H](CCC(N)=O)C(N)=O [VIIA, FGGFTG(AIB)RKS(AIB)RKLANQ-NH2], the “affinity compared with NC” value [1] is reported as “significantly higher affinity”, the Emax (human ORL-1 receptor) is reported as 90% and the “agonist character at ORL-1” value (human ORL-1 receptor; functional assay, in words) is reported as “efficacious agonist”. The “potency compared with NC” value (human ORL-1 receptor; in words) was “more potent”.
